Experimental data reported in patent US20070129438A1 (priority 2002, published 2007).

Molecular target: abnormal prion protein (Ovis aries, UniProt P23907)
Format: biochemical, sheep

Sequence of abnormal prion protein (P23907 25-233 limits assumed): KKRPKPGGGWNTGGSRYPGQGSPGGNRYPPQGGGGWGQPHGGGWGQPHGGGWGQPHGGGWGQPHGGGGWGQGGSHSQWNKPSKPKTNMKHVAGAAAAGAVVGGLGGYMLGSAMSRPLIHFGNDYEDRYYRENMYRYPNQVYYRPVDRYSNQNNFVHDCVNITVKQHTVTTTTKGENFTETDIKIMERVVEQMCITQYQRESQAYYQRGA

Q: Which “suppression of proliferation of abnormal prion protein in vitro” value (leucine 15 mg/mL, PMCA) does the source give for CC(C)C[C@H](N)C(=O)O [leucine] here?
A: effectively suppressed proliferation of abnormal prion protein

Q: And the “bands of PK resistant fragments after PMCA (Western blotting)” value (leucine final concentration 15 mg/mL, up to 10 cycles of incubation-sonication, PK 50 μg/mL)?
A: no prominent bands were formed
